Experiment: xn = mol fraction of the nth substance listed
Details: Liquid, Vibrating tube method

c1ccsc1 [thiophene] + O=C=O
Details | mass density [kg/m3]
293.15 K, 101 kPa, x2 = 0 | 1063.59
303.15 K, 101 kPa, x2 = 0 | 1051.55
313.06 K, 7053 kPa, x2 = 0.5661 | 983.33
313.06 K, 8092 kPa, x2 = 0.5661 | 985.63
313.06 K, 8911 kPa, x2 = 0.5661 | 987.46
313.06 K, 10009 kPa, x2 = 0.5661 | 989.71
313.06 K, 11009 kPa, x2 = 0.5661 | 991.78
313.06 K, 11980 kPa, x2 = 0.5661 | 993.76
313.06 K, 13003 kPa, x2 = 0.5661 | 995.81
313.06 K, 13999 kPa, x2 = 0.5661 | 997.77
313.06 K, 15006 kPa, x2 = 0.5661 | 999.68
313.06 K, 15996 kPa, x2 = 0.5661 | 1001.53
313.06 K, 17015 kPa, x2 = 0.5661 | 1003.44
313.06 K, 17998 kPa, x2 = 0.5661 | 1005.25
313.06 K, 19007 kPa, x2 = 0.5661 | 1007.09
313.07 K, 4997 kPa, x2 = 0.199 | 1030.05
313.07 K, 6011 kPa, x2 = 0.199 | 1031.17
313.07 K, 7011 kPa, x2 = 0.199 | 1032.32
313.07 K, 8006 kPa, x2 = 0.199 | 1033.43
313.07 K, 9032 kPa, x2 = 0.199 | 1034.56
313.07 K, 10022 kPa, x2 = 0.199 | 1035.65
313.07 K, 11026 kPa, x2 = 0.199 | 1036.74
313.07 K, 12001 kPa, x2 = 0.199 | 1037.83
313.07 K, 13018 kPa, x2 = 0.199 | 1038.9
313.07 K, 13993 kPa, x2 = 0.199 | 1039.92
313.07 K, 14989 kPa, x2 = 0.199 | 1040.95
313.07 K, 16012 kPa, x2 = 0.199 | 1042.03
313.07 K, 17005 kPa, x2 = 0.199 | 1043.03
313.07 K, 18003 kPa, x2 = 0.199 | 1044.05
313.07 K, 19065 kPa, x2 = 0.199 | 1045.15
313.09 K, 1029 kPa, x2 = 0 | 1040.96
313.09 K, 1969 kPa, x2 = 0 | 1041.84
313.09 K, 2970 kPa, x2 = 0 | 1042.78
313.09 K, 3987 kPa, x2 = 0 | 1043.71
313.09 K, 5055 kPa, x2 = 0 | 1044.72
313.09 K, 5952 kPa, x2 = 0 | 1045.51
313.09 K, 6937 kPa, x2 = 0 | 1046.43
313.09 K, 8032 kPa, x2 = 0 | 1047.39
313.09 K, 9218 kPa, x2 = 0 | 1048.44
313.09 K, 10045 kPa, x2 = 0 | 1049.18
313.09 K, 11012 kPa, x2 = 0 | 1050.03
313.09 K, 12014 kPa, x2 = 0 | 1050.9
313.09 K, 12995 kPa, x2 = 0 | 1051.74
313.09 K, 13961 kPa, x2 = 0 | 1052.59
313.09 K, 14970 kPa, x2 = 0 | 1053.43
313.09 K, 15953 kPa, x2 = 0 | 1054.26
313.09 K, 17004 kPa, x2 = 0 | 1055.16
313.09 K, 18003 kPa, x2 = 0 | 1055.95
313.09 K, 18904 kPa, x2 = 0 | 1056.76
313.13 K, 9091 kPa, x2 = 0.9217 | 798.81
313.13 K, 10071 kPa, x2 = 0.9217 | 813.05
313.13 K, 11026 kPa, x2 = 0.9217 | 824.67
313.13 K, 12059 kPa, x2 = 0.9217 | 836.13
313.13 K, 13037 kPa, x2 = 0.9217 | 845.52
313.13 K, 14012 kPa, x2 = 0.9217 | 854.21
313.13 K, 15001 kPa, x2 = 0.9217 | 862.38
313.13 K, 16014 kPa, x2 = 0.9217 | 870.06
313.13 K, 17035 kPa, x2 = 0.9217 | 877.41
313.13 K, 18056 kPa, x2 = 0.9217 | 884.26
313.13 K, 19024 kPa, x2 = 0.9217 | 890.25
313.13 K, 19849 kPa, x2 = 0.9217 | 895.22
313.13 K, 20858 kPa, x2 = 0.9217 | 901.01
313.13 K, 21968 kPa, x2 = 0.9217 | 907.04
313.13 K, 23020 kPa, x2 = 0.9217 | 912.42
313.13 K, 24013 kPa, x2 = 0.9217 | 917.38
313.13 K, 25004 kPa, x2 = 0.9217 | 921.98
313.14 K, 5783 kPa, x2 = 0.3818 | 1008.02
313.14 K, 6953 kPa, x2 = 0.3818 | 1010.44
313.14 K, 7991 kPa, x2 = 0.6996 | 974.06
313.14 K, 8014 kPa, x2 = 0.3818 | 1012.13
313.14 K, 9021 kPa, x2 = 0.3818 | 1013.7
313.14 K, 9112 kPa, x2 = 0.6996 | 977.19
313.14 K, 9872 kPa, x2 = 0.6996 | 979.01
313.14 K, 9948 kPa, x2 = 0.3818 | 1015.07
313.14 K, 10945 kPa, x2 = 0.3818 | 1016.6
313.14 K, 10946 kPa, x2 = 0.6996 | 981.56
313.14 K, 11951 kPa, x2 = 0.6996 | 983.92
313.14 K, 12015 kPa, x2 = 0.3818 | 1018.22
313.14 K, 13025 kPa, x2 = 0.3818 | 1019.65
313.14 K, 13033 kPa, x2 = 0.6996 | 986.45
313.14 K, 13973 kPa, x2 = 0.3818 | 1021.04
313.14 K, 13991 kPa, x2 = 0.6996 | 988.63
313.14 K, 14931 kPa, x2 = 0.6996 | 990.71
313.14 K, 15006 kPa, x2 = 0.3818 | 1022.52
313.14 K, 15988 kPa, x2 = 0.6996 | 993.02
313.14 K, 15992 kPa, x2 = 0.3818 | 1023.89
313.14 K, 16994 kPa, x2 = 0.6996 | 995.2
313.14 K, 17012 kPa, x2 = 0.3818 | 1025.32
313.14 K, 18022 kPa, x2 = 0.6996 | 997.41
313.14 K, 18039 kPa, x2 = 0.3818 | 1026.72
313.14 K, 18908 kPa, x2 = 0.3818 | 1027.86
313.15 K, 101 kPa, x2 = 0 | 1039.32
322.95 K, 5076 kPa, x2 = 0.199 | 1016.5
322.95 K, 6015 kPa, x2 = 0.199 | 1017.63
322.95 K, 7042 kPa, x2 = 0.199 | 1018.88
322.95 K, 8054 kPa, x2 = 0.199 | 1020.1
322.95 K, 9012 kPa, x2 = 0.199 | 1021.25
322.95 K, 9975 kPa, x2 = 0.199 | 1022.38
322.95 K, 11019 kPa, x2 = 0.199 | 1023.61
322.95 K, 12001 kPa, x2 = 0.199 | 1024.72
322.95 K, 12978 kPa, x2 = 0.199 | 1025.86
322.95 K, 14026 kPa, x2 = 0.199 | 1027.05
322.95 K, 15010 kPa, x2 = 0.199 | 1028.15
322.95 K, 16019 kPa, x2 = 0.199 | 1029.28
322.95 K, 17005 kPa, x2 = 0.199 | 1030.36
322.95 K, 18005 kPa, x2 = 0.199 | 1031.46

— the NIST ThermoML archive (doi:10.1016/j.fluid.2005.07.017)
